According to patent US20260240878A1, “PTP1B/TC-PTP DUAL INHIBITORS AND PROTEIN DEGRADERS” (Purdue Research Foundation, priority 2023, published 2026):
*1 amine or outer side, *2 acyl side, *3 side chain or, on linkers, in order; H or OH if unused. Where a SMILES comes first, the peptide text is derived from it. [ ]: non-standard residue; d: D form. The star is where a group is joined. NHBn(4-(4-Me-thiazol-5-yl)) = Cc1ncsc1-c1ccc(CN*)cc1; F2Pmp = N[C@@H](Cc1ccc(C(F)(F)P(=O)(O)O)cc1)C(=O)O; Phenylacetyl(4-OH,3-OMe) = COc1cc(CC(=O)*)ccc1O; Benzoyl(3-Br,4-Me) = Cc1ccc(C(=O)*)cc1Br; Hyp = O=C(O)[C@@H]1C[C@@H](O)CN1; X2 = O=C(CCN1CCN([*:1])CC1)[*:2]; Tle = CC(C)(C)[C@H](N)C(=O)O

Legend:
[1] = target: T1, PTP1B (Homo sapiens, UniProt P18031); experiment: FP-based library screening (fluorescence polarization displacement); type: binding
T1 sequence (P18031 1-435): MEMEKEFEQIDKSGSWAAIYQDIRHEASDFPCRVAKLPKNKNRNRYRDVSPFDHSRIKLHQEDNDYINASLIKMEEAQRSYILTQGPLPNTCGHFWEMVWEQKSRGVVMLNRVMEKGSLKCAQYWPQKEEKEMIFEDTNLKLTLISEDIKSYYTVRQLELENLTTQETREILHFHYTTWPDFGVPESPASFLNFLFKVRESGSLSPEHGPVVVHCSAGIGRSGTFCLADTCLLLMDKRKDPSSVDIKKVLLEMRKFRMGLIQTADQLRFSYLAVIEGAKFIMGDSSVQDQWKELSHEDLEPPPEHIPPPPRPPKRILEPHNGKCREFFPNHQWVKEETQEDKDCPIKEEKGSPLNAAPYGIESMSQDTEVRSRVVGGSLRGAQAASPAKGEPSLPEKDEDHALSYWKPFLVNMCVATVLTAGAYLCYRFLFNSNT
Method: (§1) The library screening assay was carried out on a Tecan Genesis workstation with a 96-channel tip block with fixed tips. Before the screening, the library compounds were diluted from the DMSO stock solution into 3,3-dimethylglutarate buffer (50 mM 3,3-dimethylglutarate buffer, pH 7.0, containing 1 mM EDTA with an ionic strength of 0.15 M adjusted by addition of NaCl), resulting in a set of six daughter plates with an ~75 nM concentration of each compound in each well. In the first screen, PTP1B or TCPTP (2 μM in 50 mM 3,3-dimethylglutarate buffer, 50 μL, pH 7.0, containing 1 mM EDTA with an ionic strength of 0.15 M adjusted by addition of NaCl) was dispensed into each well of a 384-well plate, and then 2 μL of the fluorescein-tagged library compounds were transferred from four 96-well intermediate plates to the 384-well plate (final compound concentration ~3 nM). The fluorescence polarization values (A1) were recorded on an Envision 2021 Multilabel Microplate Reader (Perkin-Elmer). In the second screen, 50 μL of a mixture of 2 μM PTP1B or TCPTP and 500 μM Fmoc-F2Pmp-OH (as a competitive ligand) in 3,3-dimethylglutarate buffer (50 mM 3,3-dimethylglutarate buffer, pH 7.0, containing 1 mM EDTA with an ionic strength of 0.15 M adjusted by addition of NaCl) were dispensed into each well of another 384-well plate, followed by the addition of 2 μL of the fluorescein tagged library compounds (75 nM in 3,3-dimethylglutarate buffer, pH 7.0, containing 1 mM EDTA with an ionic strength of 0.15 M adjusted by addition of NaCl). The fluorescence polarization values (A2) were again measured. A displacement percentage was calculated for each library compound as (A1−A2)/(A1−A0)×100%, where A1 and A2 are the fluorescence anisotropy values of each sample as described, and A0 is the fluorescence anisotropy of free library compounds in 3,3-dimethylglutarate buffer. To simplify the calculation, A0 was set to 30. The binding affinity ranking of each compound was determined on the displacement percentage: the […] the displacement percentage, the higher the binding affinity.
(§2) The library was screened using the same protocol as the library 1, except that 0.5 μM PTP1BB/TC-PTP and 1.5 mM competitive ligand Fmoc-F2Pmp-OH were used.
(§3) The library was screened using the same protocol as the library 1, except that 0.5 μM PTP1B/TC-PTP and 5 μM ((4-((S)-2-((S)-2-acetamido-3-phenylpropanamido)-3-(((S)-1-amino-6-(3-bromo-4-methylbenzamido)-1-oxohexan-2-yl)amino)-3-oxopropyl)phenyl)difluoromethyl)phosphonic acid (as a competitor) were used.

[2] = target: T2, TC-PTP (Homo sapiens, UniProt P17706); experiment: as above; type: binding
T2 sequence (P17706 1-415): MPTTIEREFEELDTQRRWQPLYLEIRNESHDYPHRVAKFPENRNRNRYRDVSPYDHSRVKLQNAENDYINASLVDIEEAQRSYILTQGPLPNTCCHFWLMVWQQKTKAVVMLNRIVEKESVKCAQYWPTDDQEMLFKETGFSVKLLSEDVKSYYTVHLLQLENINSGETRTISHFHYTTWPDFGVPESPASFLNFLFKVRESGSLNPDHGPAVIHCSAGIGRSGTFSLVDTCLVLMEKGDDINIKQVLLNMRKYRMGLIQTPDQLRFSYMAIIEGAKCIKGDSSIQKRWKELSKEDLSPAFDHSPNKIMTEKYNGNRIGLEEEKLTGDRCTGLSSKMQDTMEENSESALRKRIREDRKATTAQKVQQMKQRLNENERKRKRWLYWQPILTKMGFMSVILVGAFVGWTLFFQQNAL
Method: as §1, §2, §3

[3] = target: T1, PTP1B; experiment: Degradation assay in HEK293 cells (immunoblotting); type: cell-based; parameters: endogenous in cells; host or cells: HEK293; settings: 0.2 μM degrader, 16 hours
Method: (§4) HEK293. MIAPaCa-2, HepG2, U2OS, H116, MEF, B16F10, and MC38 cells, were grown in DMEM, while Jurkat and H358 cells were grown in RPMI 1640 supplemented with 10% fetal bovine serum, penicillin (50 units/mL), and streptomycin (50 μg/mL) in a 37° C. incubator containing 5% CO2. 20 ng/ml human (Biolegend #713906) or mouse (Biolegend #714006) Interferon-γ were used for JAK/STAT pathway stimulation.
(§5) Tissues or cultured cells were lysed with ice-cold lysis buffer (50 mM Tris (pH 8.0, 150 mM NaCl, 10% Glycerol, 1% Triton-X-100) supplied with phosphatase inhibitor (Bimake) and protease inhibitor mixture (Roche Applied Science). Equal amounts of protein were resolved by SDS-PAGE, transferred to nitrocellulose membrane, and subjected to immunoblotting. Antibodies used in this study include anti-following proteins: pSTAT1^Tyr701 (Cell Signaling Technology #9167, 1:3000), GAPDH (Cell Signaling Technology #97166, 1:5000), pJAK1^Tyr1034/1035 (Cell Signaling Technology #74129, 1:1000), pJAK2^Tyr1007/1008 (Cell Signaling Technology #3776, 1:1000), TC-PTP (Abcam #ab180764, 1:3000). PTP1B (Abcam #ab244207, 1:1500).
(§6) Degradation assay was conducted in HEK293 cells with 1 μM degrader and 24 hours incubation.
(§7) The degradation assay was conducted in HEK293 cells with 0.2 μM degrader and 16 hours incubation.

[4] = target: T2, TC-PTP; experiment: Degradation assay in HEK293 cells (immunoblotting); type: cell-based; parameters: endogenous in cells; host or cells: HEK293; settings: 0.2 μM degrader, 16 hours, read-out: % Protein Degradation TC-PTP
Method: as §4, §5, §6, §7

[5] = target: T1, PTP1B; experiment: PTP activity assay with pNPP substrate (IC50, Ki, mode of inhibition); type: biochemical; settings: pNPP 2 mM, pH 7.0, 25° C.; read-out: IC50, nM PTP1B
Method: (§8) PTP activity was assayed using p-nitrophenyl phosphate (pNPP) as a substrate in DMG buffer (50 mM DMG. pH 7.0, 1 mM EDTA, 150 mM NaCl, 2 mM DTT, 0.1 mg/mL BSA) at 25° C. The assays were performed in 96-well plates. Normally, to determine the IC50 values, the reaction was initiated by the addition of enzyme (for PTP1B and TCPTP, the final concentration was 0.4 nM, for other PTPs, the final concentration was 10 nM) to a reaction mixture (0.2 mL) containing 2 mM (Km for the substrate) pNPP with various concentrations of inhibitors (see FIG. 1). The reaction rate was measured using a SpectraMax Plus 384 Microplate Spectrophotometer (Molecular Devices). Data were fitted using SigmaPlot Enzyme Kinetics Module (Systat Software, Inc.). To determine the mode of inhibition, the reactions were initiated by the addition of enzyme (final concentration for TC-PTP and PTP1B was 0.4 nM) to the reaction mixtures (0.2 mL) containing various concentrations of pNPP with different concentrations of the inhibitor. Data were fitted using SigmaPlot Enzyme Kinetics Module (Systat Software. Inc.).

[6] = target: T2, TC-PTP; experiment: as above; type: biochemical; settings: pNPP 2 mM, pH 7.0, 25° C.; read-out: IC50, nM TC-PTP
Method: as §8

[7] = library 2, 0.5 μM enzyme, 1.5 mM Fmoc-F2Pmp-OH
[8] = library 1, 2 μM PTP1B, 500 μM Fmoc-F2Pmp-OH competitive ligand, smaller = higher affinity
[9] = library 1, 2 μM TCPTP, 500 μM Fmoc-F2Pmp-OH competitive ligand, smaller = higher affinity
[10] = library 3, 0.5 μM enzyme, 5 μM Example 6 compound as competitor

Molecule	Displacement %, PTP1B [1, 7] [%]	Displacement %, TC-PTP [2, 7] [%]	Displacement %, PTP1B [1, 8] [%]	Displacement %, TC-PTP [2, 9] [%]	Displacement %, PTP1B [1, 10] [%]	Displacement %, TC-PTP [2, 10] [%]	also measured
CCOC(=O)N[C@@H](Cc1ccccc1)C(=O)O [(ethoxycarbonyl)-L- phenylalanine]	44	41	–	–	–	–	–
COc1cc(CC(=O)N[C@@H](Cc2ccccc2)C(=O)N[C@@H](Cc2ccc(C(F)(F)P(=O)(O)O)cc2)C(=O)N[C@@H](CCCCNC(=O)c2ccc(C)c(Br)c2)C(=O)N2CCN(CCC(=O)N[C@H](C(=O)N3C[C@H](O)C[C@H]3C(=O)NCc3ccc(-c4scnc4C)cc3)C(C)(C)C)CC2)ccc1O [Compound 56, ((4-((S)-3-(((S)-6-(3-bromo-4-methylbenzamido)-1-(4-(3-(((S)-1-((2S,4R)-4-hydroxy-2-((4-(4-methylthiazol-5-yl)benzyl)carbamoyl)pyrrolidin-1-yl)-3,3-dimethyl-1-oxobutan-2-yl)amino)-3-oxopropyl)piperazin-1-yl)-1-oxohexan-2-yl)amino)-2-((S)-2-(2-(4-hydroxy-3-methoxyphenyl)acetamido)-3-phenylpropanamido)-3-oxopropyl)phenyl)difluoromethyl)phosphonic Acid] ({Phenylacetyl(4-OH,3-OMe)}-F[F2Pmp]K(Benzoyl(3-Br,4-Me))[X2][Tle][Hyp]-{NHBn(4-(4-Me-thiazol-5-yl))})	–	–	–	–	–	–	% Protein Degradation PTP1B [3]: 30%; percent TC-PTP degradation at 0.2 µM [4]: 14%; IC50 [5]: 13.7 ± 1.9 nM; IC50 [6]: 12 ± 0.8 nM
3-bromo-4- methylbenzoic acid	–	–	34	39	–	–	–
CN(C)c1ccc(CC(=O)O)cc1 [2-(4-(dimethylamino)phenyl) acetic acid]	–	–	–	–	81	79	–
2-(4-chloro-2- methylphenoxy)acetic acid	57	55	–	–	–	–	–
O=C(O)Cc1ccc(Br)cc1 [2-(4-bromophenyl)acetic acid]	–	–	–	–	77	77	–
(S)-2-acetamido-3-(4- fluorophenyl)propanoic acid	45	45	–	–	–	–	–
O=C(O)Cc1ccc(O)cc1 [2-(4-hydroxyphenyl)acetic acid]	–	–	–	–	66	62	–
COc1cc(CC(=O)O)ccc1O [2-(4-hydroxy-3-methoxyphenyl)acetic acid]	–	–	–	–	51	54	–
2-(3-fluoro-4- hydroxyphenyl)acetic acid	–	–	–	–	72	75	–

Further lines, with some results ahead:

Displacement %, PTP1B [1, 7] [%]	Displacement %, TC-PTP [2, 7] [%]	Displacement %, PTP1B [1, 8] [%]	Displacement %, TC-PTP [2, 9] [%]	Molecule	Displacement %, PTP1B [1, 10] [%]	Displacement %, TC-PTP [2, 10] [%]	also measured
47	53	–	–	Cc1ccc(CCC(=O)O)cc1 [3-(p-tolyl)propanoic acid]	–	–	–
–	–	44	46	O=C(O)c1ccc(F)cc1 [4-fluorobenzoic acid]	–	–	–
–	–	57	54	COc1ccc(C(=O)O)cc1F [3-fluoro-4-methoxybenzoic acid]	–	–	–
37	41	–	–	CC(=O)N[C@@H](Cc1ccccc1)C(=O)O [acetyl-L-phenylalanine]	–	–	–
–	–	45	51	O=C(O)c1ccsc1 [3-thiophenecarboxylic acid]	–	–	–
–	–	41	40	COc1cc(C(=O)O)ccc1[N+](=O)[O-] [3-methoxy-4-nitrobenzoic acid]	–	–	–
